From patent US11945833B2, “Prodrugs of L-BHDU and methods of treating viral infections” (priority 2021, dated 2024) come the findings set out here.

The subject of one data set is HSV-1. Put plainly: Anti-HSV-1 activity in Vero cells. Type of data set: cell-based, herpes simplex virus. The method, then:
Additionally, all synthesized compounds were also tested in vitro against herpes simplex viruses (HSV-1, oral herpes) in Vero cells, FIG. 8.

Data set [1] deals with VZV-ORF57-Luc. Put plainly: NuSkin mouse model of VZV replication (adult human skin xenografts), bioluminescence imaging. Type of data set: in vivo, Athymic Nude mice. Conditions: for in vivo antiviral activity against VZV (in words): s.c. once daily days 3-9 post-infection, equimolar to cidofovir 10 mg/kg; for dose effective in vivo: subcutaneous (s.c.); for activity compared with cidofovir in repeated in vivo studies: subcutaneous (s.c.) as well as oral route, cidofovir 10 mg/Kg. The method, then:
Mice were treated with vehicle or drugs, and virus yield was measured by bioluminescence imaging. VZV growth rate for individual mice (symbols) and the average for the group (bars) are shown in (A) and (B). […] The overall significance on day 10 post-inoculation (DPI 10) is p=0.0352 (one-way ANOVA). ** p<0.01 for OED-L-BHDU & POM-L-BHDU and (student's t test with Welch's correction). Cidofovir group (i.p.) has an average fold change of 2-5 on DPI 10. (B).
A general note: In xenograft studies the graft and the host belong to different species.

Data set [2] deals with human fibroblast (HFFs) cells. The format is cell-based. The method, then:
The cellular toxicity of synthesized analogs was determined on low passage of human fibroblast (HFFs) cells by performing 72 h of neutral red dye uptake and MTT cell proliferation assays.

Data set [3] relates to VZV-ORF57-Luc. The data set can be described thus: Antiviral activity in ARPE-19 cells infected with VZV-ORF57-Luc. Type of data set: cell-based, Varicella-zoster virus. Conditions: for in vitro anti-VZV activity (in words): VZV-ORF57-Luc; for EC50: read-out: EC50 against VZV-ORF57-Luc. The method, then: To enhance the antiviral activity octadecyloxyethyl-L-BHDU (ODE-L-BHDU, 5) and hexadecyloxypropyl-L-BHDU (HDP-L-BHDU, 6), POM-L-BHDU (8), and POC-L-BDHU (14) (FIGS. 1-3, Schemes 1-3) prodrugs were synthesized with modifications to increase bioavailability and cell penetration. Their antiviral activity was evaluated in ARPE-19 cells infected with VZV-ORF57-Luc, a new reporter virus.

Data set [4] in a line: Tolerability and weight change in NuSkin mice. Conditions: male and female mice.
For a further data set, the system named is VZV. The data set can be described thus: Topical treatment of VZV in human skin explant model. Conditions: formulated in cocoa butter. The text has this: (§1) Each compound was formulated in Cocoa Butter and applied topically. POM was formulated in equimolar concentrations to 0.1% L-BHDU.
A further data set has as its system HSV1. Put plainly: Topical treatment of HSV1 in human skin explant model. Conditions: formulated in cocoa butter.
Text: as §1

Another data set has as its system HSV-2. Put plainly: Anti-HSV-2 activity in Vero cells, bioluminescence imaging. The format is cell-based, herpes simplex virus. The method, then: HSV-2 yield was determined by bioluminescence imaging. Each point represents the mean±standard deviation of a triplicate sample
Furthermore, antiviral activity of these analogs was tested in vitro against the HSV-2 (genital herpes) in Vero cells using acyclovir as a standard drug reference. […] All other analogs, including L-BDHU, were found ineffective against the HSV-2 (FIG. 11, Table 3). After these findings, it was determined that POM-L-BHDU […] has potential against the HSV-1 & HSV-2. Further in vivo evaluation of POM prodrug of the L-BDHU will confirm activity.

Data set [5] has as its system cell-associated VZV-ORF57-Luc. Put plainly: Antiviral screening against cell-associated VZV-ORF57-Luc in ARPE-19 cells. Type of data set: cell-based, Varicella-zoster virus. The method, then:
Cidofovir and acyclovir are positive controls. Each symbol represents the average of 6 replicate wells; the line is the best fit curve (error bars omitted for clarity).
These studies were performed in the same manner as the efficacy studies described above, except cell-associated VZV-ORF57-Luc, VZV-ORF57-ΔTK, VZV-ORF57-ΔTS and VZV-ORF57-ΔTKTS were used to infect ARPE-19 cells. As before, CDV and ACV were used as positive controls.

“Also recorded” adds a separate entry of the source. Read-outs that look alike come from different tables or passages of the source. A value given as a limit tells only on which side of the number the result lay.

By EC50 is commonly meant the concentration at which the effect is half-maximal. Regarding `Nc1nc2c(ncn2COCCO)c(=O)[nH]1` [acyclovir, reference compound], the EC50 with HSV-1 (Human alphaherpesvirus 1, read-out: EC50 against HSV-1) was 0.0736 µM.

A word on the CC50: it is the concentration at which the toxic effect on the cells reaches its halfway point. `CC(C)(C)C(=O)OCOP(=O)(OCOC(=O)C(C)(C)C)OC[C@H]1OC[C@@H](n2cc(/C=C/Br)c(=O)[nH]c2=O)O1` [POM-L-BHDU]: the “oral in vivo effectiveness in comparison to cidofovir (ip route)” value in the data set on VZV-ORF57-Luc [1] (oral, FIG. 6B) is “orally equal effective in comparison to cidofovir”. Besides, the “in vivo antiviral activity against VZV (in words)” value (“in vivo antiviral activity” for short) was “most active; also recorded: superior antiviral potency compared to L-BHDU; also recorded: retained its antiviral potency; also recorded: better activity compared to parental molecule” in the data set on VZV-ORF57-Luc [1]; “better in vitro and in vivo activity in comparison to L-BDHU” in the data set with VZV-ORF57-Luc [1] (listed as POM (8)). In addition, in the data set on VZV-ORF57-Luc [1], the “dose effective in vivo” value is “around 25 mg/kg/day”. For the same molecule, in the data set on VZV-ORF57-Luc [1], the “activity compared with cidofovir in repeated in vivo studies” value was “more active than the cidofovir”. Further, the CC50 (in data set [2]; with Vero Cells) was greater than 100 µM each time. In data set [2], the “effect on cellular proliferation” value is given as “did not affect cellular proliferation”. Also, the “in vitro anti-VZV activity (in words)” value in the data set with VZV-ORF57-Luc [3] was “significant anti-VZV activity; also recorded: good antiviral efficacy; also recorded: enhanced antiviral potency in comparison to L-BHDU”; in the data set on VZV-ORF57-Luc [3] (listed as POM (8)) it was “better in vitro and in vivo activity in comparison to L-BDHU”. Also, the “tolerability / toxicity in mice” value in [4] is recorded as “without significant toxicity”; in [4] (listed as POM-L-BDHU) it was “well-tolerated”. In addition, the “prevention of VZV spread in adult human skin” value with VZV is “highly effective”. Further, the EC50 in the data set on HSV-1 (read-out: EC50 against HSV-1) turned out to be 0.028 µM; in the data set with HSV-2 (read-out: EC50 against HSV-2) it was 1.4 µM. Moreover, the “prevention of HSV1 spread in adult human skin” value in the data set on HSV1 was “highly effective”; in the data set with HSV1 (listed as L-BHDU-POM) it was “highly effective; also recorded: more effective than topical acyclovir 0.5%”. Also, the results for the “anti-HSV-2 activity (in words)” value with HSV-2 and in the data set on HSV-2 (listed as POM-L-BDHU) were “active” and “significant activity”, respectively.

As for `CC(C)OC(=O)OCOP(=O)(OCOC(=O)OC(C)C)OC[C@H]1OC[C@@H](n2cc(/C=C/Br)c(=O)[nH]c2=O)O1` [POC-L-BHDU, Bis (POC) prodrug L-BHDU], the “in vivo antiviral activity” value in the data set on VZV-ORF57-Luc [1] was “ineffective”; with VZV-ORF57-Luc [1] (listed as POC (14)), “better in vitro and in vivo activity in comparison to L-BDHU”. In addition, the cytotoxic concentration (CC50) (in [2]; in the data set with Vero Cells) was greater than 100 µM throughout. Also, the “effect on cellular proliferation” value in data set [2] was “did not affect cellular proliferation”. Also, the “in vitro anti-VZV activity (in words)” value with VZV-ORF57-Luc [3] was “significant anti-VZV activity; also recorded: good antiviral efficacy”; in the data set with VZV-ORF57-Luc [3] (listed as POC (14)) it was “better in vitro and in vivo activity in comparison to L-BDHU”. The EC50 in the data set on VZV-ORF57-Luc [3] is 0.034 µM; with HSV-1 (read-out: EC50 against HSV-1), 0.026 µM. Also, the “anti-HSV-1 activity (in words)” value in the data set with HSV-1 is listed as “good activity”.

Consider `CCCCCCCCCCCCCCCCOCCCOP(=O)(O)OC[C@H]1OC[C@@H](n2cc(/C=C/Br)c(=O)[nH]c2=O)O1` [HDP-L-BHDU, hexadecyloxypropyl-L-BHDU], for which the CC50 in [2] stood at 10 µM. For the same molecule, in the data set on VZV-ORF57-Luc [3], the “in vitro anti-VZV activity (in words)” value is “lower antiviral activity relative to L-BHDU; also recorded: lower in vitro activity than the parental molecule” and the EC50 is 0.9 µM.

Consider `CCCCCCCCCCCCCCCCCCOCCOP(=O)(O)OC[C@H]1OC[C@@H](n2cc(/C=C/Br)c(=O)[nH]c2=O)O1` [ODE-L-BHDU, L-BHDU-5′-[(2-octadecyloxyethyl)phosphate]], for which the results for the “in vivo antiviral activity” value in the data set with VZV-ORF57-Luc [1] and with VZV-ORF57-Luc [1] (listed as OED-L-BHDU) were “better antiviral activity in comparison to L-BHDU; also recorded: most active” and “superior antiviral potency compared to L-BHDU; also recorded: significantly enhanced in vivo antiviral activity in comparison to L-BHDU”, respectively. For the same molecule, the “dose effective in vivo” value in the data set on VZV-ORF57-Luc [1] is listed as “around 25 mg/kg/day”. The “activity compared with cidofovir in repeated in vivo studies” value in the data set on VZV-ORF57-Luc [1] is “more active than the cidofovir”. In addition, the “in vitro anti-VZV activity (in words)” value is given as “lower antiviral activity relative to L-BHDU” with VZV-ORF57-Luc [3] and “lower in vitro activity than the parental molecule” in the data set on VZV-ORF57-Luc [3] (listed as OED-L-BHDU). Also, the EC50 amounted to 0.068 µM in the data set with VZV-ORF57-Luc [3] and 0.757 µM with HSV-1 (read-out: EC50 against HSV-1). Also, the entries for the “tolerability / toxicity in mice” value in data set [4] and in data set [4] (listed as OED-L-BHDU) were “without significant toxicity” and “well-tolerated”, respectively. Also, the “concentration at which cellular cytotoxicity was exhibited” value in the data set on Vero Cells was found to be 20 µM. Also, in data set [5], the “potency against cell-associated VZV-ORF57-Luc compared to CDV or ACV” value is reported as “less potent compared to CDV”. In addition, the “anti-HSV-1 activity (in words)” value in the data set on HSV-1 is listed as “good activity”.

On to `Nc1ccn(C[C@@H](CO)OCP(=O)(O)O)c(=O)n1` [Cidofovir, cidofovir, reference compound], for which, in the data set on VZV-ORF57-Luc [1] (i.p., day 10 post-inoculation), the “average fold change on DPI 10” value is listed as 2-5 fold.
